Measured values taken from patent US9868724B2, “Compounds” (GLAXOSMITHKLINE INTELLECTUAL PROPERTY DEVELOPMENT LIMITED, priority 2014, dated 2018).

What was measured:
[1] = biological target: T1, RORγ ligand binding domain (RORγ-LBD) (Homo sapiens, UniProt P51449); experiment: Dual Fluorescence Energy Transfer (FRET) Assay; assay type: biochemical; settings: mean pIC50 of multiple test results if tested more than once; RORγ-LBD/SRC1(2) peptide interaction
T1 construct: modified polyhistidine tag MKKHHHHHHLVPRGS (N); made in house; host or cells: E. coli BL21(DE3)
T1 sequence (P51449 263-518): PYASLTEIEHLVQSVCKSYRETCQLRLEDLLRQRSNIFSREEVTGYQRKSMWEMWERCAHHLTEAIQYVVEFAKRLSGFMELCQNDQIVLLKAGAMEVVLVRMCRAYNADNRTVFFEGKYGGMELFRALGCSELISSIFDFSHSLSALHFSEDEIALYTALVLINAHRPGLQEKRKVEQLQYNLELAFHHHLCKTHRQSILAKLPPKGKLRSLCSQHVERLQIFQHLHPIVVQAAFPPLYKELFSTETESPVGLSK
From the text: This assay is based on the knowledge that nuclear receptors interact with cofactors (transcription factors) in a ligand dependent manner. RORγ is a typical nuclear receptor in that it has an AF2 domain in the ligand binding domain (LBD) which interacts with co-activators. The sites of interaction have been mapped to the LXXLL motifs in the co-activator SRC1(2) sequences. Short peptide sequences containing the LXXLL motif mimic the behavior of full-length co-activator.
The assay measures ligand-mediated interaction of the co-activator peptide with the purified bacterial-expressed RORγ ligand binding domain (RORγ-LBD) to indirectly assess ligand binding. RORγ has a basal level of interaction with the co-activator SRC1(2) in the absence of ligand, thus it is possible to find ligands that inhibit or enhance the RORγ/SRC1(2) interaction.
Human RORγ Ligand Binding Domain (RORγ-LBD) was expressed in E. coli strain BL21(DE3) as an amino-terminal polyhistidine tagged fusion protein. DNA encoding this recombinant protein was sub-cloned into a modified pET21a expression vector (Novagen). […]
Approximately 50 g E. coli cell pellet was resuspended in 300 mL of lysis buffer (30 mM imidazole pH 7.0 and 150 mM NaCl). […] After washing to baseline absorbance with the equilibration buffer, the column was developed with a gradient from 30 to 500 mM imidazole pH 7.0. […]

RORγ = biological target: T2, RORγ (Homo sapiens, UniProt P51449); experiment: Jurkat Cell Luciferase Assay; assay type: cell-based; settings: mean pIC50 of multiple test results if tested more than once; Jurkat cells, human IL17 promoter luciferase reporter, RORγt overexpression
T2 construct: expressed in transfected cells
T2 sequence (P51449 1-497 isoform P51449-2): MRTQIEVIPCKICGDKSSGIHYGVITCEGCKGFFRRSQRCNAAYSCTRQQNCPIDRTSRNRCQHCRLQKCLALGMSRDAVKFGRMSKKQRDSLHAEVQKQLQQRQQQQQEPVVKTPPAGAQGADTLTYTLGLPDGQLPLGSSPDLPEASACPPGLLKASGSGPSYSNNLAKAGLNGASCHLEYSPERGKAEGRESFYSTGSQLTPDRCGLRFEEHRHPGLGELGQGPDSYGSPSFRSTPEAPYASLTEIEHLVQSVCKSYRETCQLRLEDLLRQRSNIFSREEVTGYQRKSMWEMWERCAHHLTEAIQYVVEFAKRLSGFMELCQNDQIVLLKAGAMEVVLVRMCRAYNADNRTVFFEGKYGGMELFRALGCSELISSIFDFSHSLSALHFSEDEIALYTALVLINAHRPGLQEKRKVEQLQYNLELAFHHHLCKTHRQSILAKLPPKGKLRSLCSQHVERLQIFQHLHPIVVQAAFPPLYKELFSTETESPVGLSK
From the text: RORγ is known to bind to a CNS (conserved non-coding sequences) enhancer element in the IL17 promoter. In this assay, RORγ activity is indirectly assessed using a luciferase reporter construct which contains the human IL17 promoter having the RORγ-specific CNS enhancer element. Inhibition of RORγ activity by a compound will result in a decrease in luciferase activity of Jurkat cells transfected with the reporter construct.
For the luciferase reporter plasmid, the 3 Kb human IL17 promoter containing the RORγ-specific CNS enhancer element was PCR amplified from human genomic DNA and cloned into a pGL4-Luc2/hygro reporter plasmid sequentially as XhoI-HindIII (1.1 Kb) and KpnI-XhoI (1.9 Kb) fragments. For the 1.1 Kb fragment, PCR was used to amplify human IL17 proximal promoter region from genomic DNA of 293T cells using primers as follows: forward primer, 5′-[…]-3′ (XhoI site is underlined) and reverse primer, 5′-[…]-3′ (HindIII site is underlined). The 1.1 kb DNA bands were excised, purified, and inserted into pMD19-T Simple Vector (Takara). […]
Compounds were dissolved in DMSO at three concentrations, 10 mM, 400 uM and 16 uM, and were dispensed into 384-wells assay plate at 40 nl, 12.5 nl, 5 nl respectively. The volume was adjusted with pure DMSO to a give a final uniform volume of 40 nl Jurkat cells described above were counted and centrifuged. […]

RORγ-LBD = biological target: T3, RORγ-LBD (Homo sapiens, UniProt P51449); experiment: Fluorescence Energy Transfer (FRET) Assay; assay type: biochemical; settings: mean pIC50 of multiple test results if tested more than once; SRC1/RORγ-LBD with 0.2 μM surrogate agonist
T3 construct: adding an appropriate amount of biotinylated RORγ-LBD and APC-labeled streptavidin
T3 sequence (P51449 269-508 limits assumed): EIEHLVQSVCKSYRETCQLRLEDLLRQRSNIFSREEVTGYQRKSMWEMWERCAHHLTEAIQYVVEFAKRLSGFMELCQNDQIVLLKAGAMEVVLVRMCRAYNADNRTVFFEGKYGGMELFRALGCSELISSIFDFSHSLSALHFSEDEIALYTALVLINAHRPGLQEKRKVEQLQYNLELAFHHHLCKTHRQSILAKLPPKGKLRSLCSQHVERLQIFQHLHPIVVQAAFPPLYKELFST
Description: The assays were performed in an assay buffer consisting of 50 mM NaF, 50 mM 3-(N-morpholino)propanesulfonic acid, pH 7.5, 50 μM 3-[(3-cholamidopropyl)dimethylammonio]-propanesulfonate, 0.1 mg/mL bovine serum albumin, and 10 mM dithiothreitol in 384-well plates (Greiner 784076, Longwood, Fla.). The total volume was 10 μL/well. The europium-labeled SRC1 solution was prepared by adding an appropriate amount of biotinylated SRC and europium labeled streptavidin (PerkinElmer Life and Analytical Sciences, Waltham, Mass.) into assay buffer, with final concentrations of 27 and 3.3 nM, respectively. The allophycocyanin (APC)-labeled-LBD solution was prepared by adding an appropriate amount of biotinylated RORγ-LBD and APC-labeled streptavidin (CR130-100; PerkinElmer Life and Analytical Sciences) at a final concentration of 33 nM each. After 15 min of incubation at room temperature, a 20-fold excess of biotin was added to block the remaining free streptavidin. […] The plates were incubated for 1 h at room temperature and then read on ViewLux (PerkinElmer Life and Analytical Sciences) in LANCE mode configured for europeum-APC labels. Data were collected and analyzed by Activitybase.

Mouse CD4+ cells = experiment: Th17 Cell Differentiation Assay; assay type: cell-based; settings: mean pIC50 of multiple test results if tested more than once, IL-17 ELISA
Description: Mouse CD4+ cells were purified using the CD4+ T Cell Isolation II Kit according to manufacturer's instructions (Miltenyi Biotec). 96 well plates were pre-coated with anti-mCD3 antibody. Un-coated wells were used as controls. CD4+ Cells were resuspended in RPMI 1640 complete medium and were added to the 96-well plates. Cytokine cocktail and the compound were then added to the wells. Antibodies and cytokines (all from R&D Systems) used in the assay were selected from the following: anti-mCD3; anti-mCD28; anti-mIFNγ; anti-mIL4; mIL-6; mIL-23; mIL-1β; hTGF-β1. The culture was incubated at 37° C. for 3 days and supernatants were collected for ELISA. The IL-17 ELISAs were performed according to manufacturer's instructions (R&D Systems). The results were analyzed using Prism software with non-linear regression to determine pIC50.
The Th17 differentiation culture described above was maintained for 5 days and cells were analyzed by IL-17 and IFN-γ intracellular staining according to manufacturer's instructions (BD Biosciences).

Cc1ncc(C(=O)Nc2cc(Cl)cc(CN3CCN(C(=O)[C@@H]4CCOC4)[C@@H](C)C3)c2C)cc1C#N (single isomer, unassigned) [Example 91]
IC50 [1]: ~0.794 µM
IC50 (RORγ): ~0.0126 µM
IC50 (RORγ-LBD): ~0.251 µM
IC50 (Mouse CD4+ cells): ~0.0174 µM

Cc1ncc(C(=O)Nc2cc(Cl)cc(CN3CCN(C(=O)[C@H]4CCOC4)[C@@H](C)C3)c2C)cc1F [Example 57, N-(5-chloro-2-methyl-3-(((S)-3-methyl-4-((S)-tetrahydrofuran-3-carbonyl)piperazin-1-yl)methyl)phenyl)-5-fluoro-6-methylnicotinamide]
IC50 [1]: ~0.2 µM
IC50 (RORγ): ~0.0251 µM
IC50 (RORγ-LBD): ~0.126 µM
IC50 (Mouse CD4+ cells): ~0.0813 µM
